# Patent publication US8080644B2, “Oligonucleotide analogues” (Exiqon A/S, priority 1997, dated 2011)
# V = bicyclic LNA-type nucleotide of structure V in the publication's (LNA marked in bold); d = 2'-deoxy (DNA)
# Tests used:
# [1] = test system: 5′-(AAAAAAGAAAAAAA)-3′; test: Tm of duplex (spectrophotometric melting curves); type: binding; conditions: vs RNA 5′-(AAAAAAGAAAAAAA)-3′ (mismatch); 10 mM Na2HPO4 pH 7.0, 100 mM NaCl, 0.1 mM EDTA
# Method: (§1) Thermostability of oligonucleotides containing monomers of formula V, X, Y and Z^T, Z^U, Z^G, Z^C, Z^A, Z^MeC. The thermostability of the LNA modified oligonucleotides were determined spectrophotometrically using a spectrophotometer equipped with a thermoregulated Peltier element. Hybridisation mixtures of 1 ml were prepared containing either of 3 different buffers (10 mM Na2HPO4, pH 7.0, 100 mM NaCl, 0.1 mM EDTA; 10 mM Na2HPO4 pH 7.0, 0.1 mM EDTA; 3M tetramethylammoniumchlorid (TMAC), 10 mM Na2HPO4, pH 7.0, 0.1 mM EDTA) and equimolar (1 μM or 1.5 μM) amounts of the different LNA modified oligonucleotides and their complementary or mismatched DNA or RNA oligonucleotides. Identical hybridisation mixtures using the unmodified oligonucleotides were prepared as references. The Tm's were obtained as the first derivative of the melting curves. FIG. 2 illustrates the monomeric LNAs used. The nomenclature V, X, Y and Z^T, Z^U, Z^G, Z^C, Z^A, Z^MeC refer to structures V, X, Y and Z of FIG. 2. In the tables, the nucleobases of the LNA monomers are indicated. Furthermore, for the thio and amino variants of the LNA structure Z of the last two tables, the nomenclature used is, e.g., Z^TS and Z^TNH, respectively.
# [2] = test system: 5′-(AAAAAAAAAAAAAA)-3′; test: Tm of duplex (spectrophotometric melting curves); type: binding; conditions: vs RNA 5′-(AAAAAAAAAAAAAA)-3′; 10 mM Na2HPO4 pH 7.0, 100 mM NaCl, 0.1 mM EDTA
# Method: as §1
# [3] = test system: 5′-d(AAAAAAAAAAAAAA)-3′; test: Tm of duplex (spectrophotometric melting curves); type: binding; conditions: vs 5′-d(AAAAAAAAAAAAAA)-3′; 10 mM Na2HPO4 pH 7.0, 100 mM NaCl, 0.1 mM EDTA
# Method: as §1
# [4] = test system: δ opioid receptor; test: Warm water tail flick test, [D-Ala2]deltorphin-induced antinociception; type: in vivo, rats; conditions: 60 μg, i.th, saline-treated controls, 52° C. water
# Method: Blockade by Antisense Locked Nucleic Acids (LNA) of [D-Ala2]Deltorphin-Induced Antinociception in the Warm Water Tail Flick Test in Conscious Rats. Male Sprague-Dawley rats (300 g) were implanted with an intrathecal (i.th). polyethylene catheter and allowed to recover for at least 5 days before start of injections (including controls). The antisense LNA compounds (12.5 and 2.5 μg per injection) were administered in a 5 μl volume twice-daily (08.00 and 17.00 h) for 3 days. No signs of non-specific effects or toxicity could be detected, as shown by observations of locomotor behavior and measurements of body weight. The day after the last injection the rats were injected with [D-Ala2]deltorphin (60 μg, i.th) and tested in the warm water (52° C.) tail flick test for δ opioid receptor-mediated antinociception. Data are presented in FIG. 14 as medians based on 6-8 animals per group (data converted to percent maximum possible response, % MPE). Statistical analyses were performed by means of Kruskal-Wallis 1-way ANOVA by ranks, followed by comparisons of treatments versus control.
# [5] = test system: 5′-d(AAAACAAAA)-3′; test: Tm of duplex (spectrophotometric melting curves); type: binding; conditions: vs 5′-d(AAAACAAAA)-3′ (mismatch); 10 mM Na2HPO4 pH 7.0, 100 mM NaCl, 0.1 mM EDTA
# Method: as §1
# [6] = test system: 5′-d(AAAATAAAA)-3′; test: Tm of duplex (spectrophotometric melting curves); type: binding; conditions: vs 5′-d(AAAATAAAA)-3′ (mismatch); 10 mM Na2HPO4 pH 7.0, 100 mM NaCl, 0.1 mM EDTA
# Method: as §1
# [7] = test system: 5′-d(AAAAGAAAA)-3′; test: Tm of duplex (spectrophotometric melting curves); type: binding; conditions: vs 5′-d(AAAAGAAAA)-3′ (mismatch); 10 mM Na2HPO4 pH 7.0, 100 mM NaCl, 0.1 mM EDTA
# Method: as §1
# [8] = test system: Arabidopsis mRNA, AMV Reverse Transcriptase; test: First strand cDNA synthesis priming; type: biochemical; conditions: 42° C., 2 hours, vs anchored poly dT control
# Method: First Strand cDNA Synthesis Using Poly dT Primers Containing LNA T monomers. Reactions were set up in order to test the ability of poly dT primers containing LNA T residues to prime 1st strand cDNA synthesis. The following poly dT primers were tested (LNA monomers are in bold): […]
# Reactions were set up as follows for each of the primers above: […]
# This mix was then heated to 75° C. for 3 min and then allowed to cool at room temperature for at least 10 min.
# The following was then added to each of the reactions:
# The reactions were incubated at 42° C. for 2 hours. The reactions were then heated at 95° C. for 3 min before loading onto a 6% polyacrylamide 7M urea gel. The gel was fixed in 10% acetic acid/10% methanol before transferring to 3 MM paper and drying. The dried gel was exposed to Kodak Biomax autoradiography film overnight.
compound,measurement,setting,value
"5′-d(TTTTTTTTTTTTTT)-3′ (SEQ ID NO: 113): fully modified poly-T oligonucleotide of structure V (sugars from the 5' end V13 d1, backbone not given here)",Tm (° C.) Na2HPO4/NaCl/EDTA,[1],37 °C
same,Tm (° C.) Na2HPO4/NaCl/EDTA,[2],42 °C
same,Tm (° C.) Na2HPO4/NaCl/EDTA,[3],<10 °C
"CC(C)[C@H](NC(=O)[C@H](CCC(=O)O)NC(=O)[C@H](Cc1ccccc1)NC(=O)[C@@H](C)NC(=O)[C@@H](N)Cc1ccc(O)cc1)C(=O)N[C@H](C(=O)NCC(=O)O)C(C)C [deltorphin, [D-Ala2]deltorphin]",antinociceptive effect,[4],robust antinociceptive effect
5′-d(TTTTTTTTTT)-3′ (SEQ ID NO: 95): almost fully modified LNA oligomer containing exclusively Z^T (52-56) (LNA Z^T monomers),Tm (° C.) Na2HPO4/NaCl/EDTA,[5],63 °C
same,Tm (° C.) Na2HPO4/NaCl/EDTA,[6],65 °C
same,Tm (° C.) Na2HPO4/NaCl/EDTA,[7],55 °C
same,Tm (° C.) Na2HPO4/NaCl/EDTA,[2],70 °C
same,Tm (° C.) Na2HPO4/NaCl/EDTA,[3],80 °C
RTZ 5: poly dT primer 5′-TTT TTT TTT T-3′ (SEQ ID NO: 69) containing LNA T monomers (TTTTTTTTTT; LNA T monomers),priming of 1st strand cDNA synthesis,[8],yield was significantly lower than that produced with the control oligo primer
